What was measured:
Coagulation factor X = Coagulation factor X (Homo sapiens, UniProt P00742); test: Inhibition of human factor Xa using Mes-Darg-Pro-Arg-AMC as flurogenic substrate by fluorescence assay
Prothrombin = Prothrombin (Bos taurus, UniProt P00735); test: Inhibition of bovine thrombin using Tos-Gly-Pro-Arg-AMC as substrate by fluorescence assay
Plasminogen = Plasminogen (Homo sapiens, UniProt P00747); test: Inhibition pf human plasmin using Mes-Darg-Phe-Arg-AMC as substrate by fluorescence assay

Measured: Ki

Plasminogen, sequence (P00747 97-580 limits assumed): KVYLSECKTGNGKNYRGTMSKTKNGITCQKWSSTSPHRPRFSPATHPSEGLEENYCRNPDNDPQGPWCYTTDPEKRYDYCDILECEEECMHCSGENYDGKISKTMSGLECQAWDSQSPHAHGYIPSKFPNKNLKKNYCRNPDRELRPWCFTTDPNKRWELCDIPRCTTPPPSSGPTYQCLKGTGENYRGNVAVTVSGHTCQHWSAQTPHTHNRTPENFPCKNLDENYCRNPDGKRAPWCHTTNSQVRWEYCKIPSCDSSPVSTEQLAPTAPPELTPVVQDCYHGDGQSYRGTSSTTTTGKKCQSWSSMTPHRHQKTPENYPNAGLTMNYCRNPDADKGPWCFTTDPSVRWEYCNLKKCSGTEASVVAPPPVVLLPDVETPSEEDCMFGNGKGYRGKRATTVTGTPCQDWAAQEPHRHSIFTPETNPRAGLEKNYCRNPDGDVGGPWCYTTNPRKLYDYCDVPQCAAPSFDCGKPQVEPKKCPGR
Plasminogen, sequence (P00747 581-810 limits assumed): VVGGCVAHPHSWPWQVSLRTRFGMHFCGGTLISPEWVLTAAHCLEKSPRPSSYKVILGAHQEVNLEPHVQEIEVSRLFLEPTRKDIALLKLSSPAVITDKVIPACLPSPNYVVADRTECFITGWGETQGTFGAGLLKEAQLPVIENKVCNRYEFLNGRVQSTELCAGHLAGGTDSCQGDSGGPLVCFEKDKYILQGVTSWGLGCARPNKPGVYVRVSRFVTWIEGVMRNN
Coagulation factor X, sequence (P00742 41-179 limits assumed): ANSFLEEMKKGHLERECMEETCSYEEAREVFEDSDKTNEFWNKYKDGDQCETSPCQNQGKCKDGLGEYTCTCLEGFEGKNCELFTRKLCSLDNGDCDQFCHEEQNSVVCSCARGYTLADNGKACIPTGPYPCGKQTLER
Coagulation factor X, sequence (P00742 235-488 limits assumed): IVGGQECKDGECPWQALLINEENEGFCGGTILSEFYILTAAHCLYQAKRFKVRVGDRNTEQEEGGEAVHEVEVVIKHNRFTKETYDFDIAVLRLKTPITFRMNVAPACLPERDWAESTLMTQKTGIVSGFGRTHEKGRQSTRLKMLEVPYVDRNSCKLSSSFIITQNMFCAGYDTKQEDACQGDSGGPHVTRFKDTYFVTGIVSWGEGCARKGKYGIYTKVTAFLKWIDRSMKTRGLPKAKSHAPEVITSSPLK

CC(C)(C)[C@H](NC(=O)[C@H](CCONC(=N)N)NC(=O)Cc1ccc(CNC(=N)N)cc1)C(=O)N[C@@H](CCONC(=N)N)C(=O)NCc1ccc(C(=N)N)cc1
> 3000 nM: all assays above

From BindingDB's records for doi:10.1021/acsmedchemlett.0c00651 (Philipps University, 2021)
